Assay results: patent publication US20180155341A1, “Antibacterial Compounds” (Janssen Sciences Ireland UC, priority 2015, published 2018)
In brackets after ≈: the same amount, converted by molar mass.

What was measured:
[1] = test system: Mycobacterium tuberculosis strain EH 4.0 (361.269); assay: Test 4: MIC determination against M. tuberculosis, resazurin fluorescence read-out, different strain; assay type: cell-based; settings: read-out: pIC50 (converted)
Excerpt: Test 4 (See Also Test 1 Above; in this Test a Different Strain of Mycobacterium tuberculosis Strain is Employed)
Appropriate solutions of experimental and reference compounds were made in 96 well plates with 7H9 medium. Samples of Mycobacterium tuberculosis strain EH 4.0 (361.269) were taken from cultures in stationary growth phase. These were first diluted to obtain an optical density of 0.3 at 600 nm wavelength and then diluted 1/100, resulting in an inoculum of approximately 5×10 exp5 colony forming units per well. Plates were incubated at 37° C. in plastic bags to prevent evaporation. After 7 days, resazurin was added to all wells.

[2] = test system: Mycobacterium tuberculosis strain H37Rv; assay: Test 1: MIC determination against M. tuberculosis, resazurin fluorescence read-out; assay type: cell-based; settings: Test 1, strain H37Rv
M. tuberculosis H37Rv = settings: strain H37Rv, inside macrophages; cited from earlier work
[3] = test system: replicating and non-replicating bacteria; settings: stated in J. Medicinal Chemistry, 2014, 57 (12); cited from earlier work
MDR tuberculosis = settings: stated in J. Medicinal Chemistry, 2014, 57 (12); cited from earlier work

CCc1nc2ncc(Cl)cn2c1C(=O)NCc1ccc2nc(N3CC4(CC(c5ccc(OC(F)(F)F)cc5)C4)C3)ccc2c1 [Compound 1] gave an IC50 [1] of 39.8 nM.

For CCc1nc2ccc(Cl)cn2c1C(=O)NCc1ccc2nc(N3CC4(CC(c5ccc(OC(F)(F)F)cc5)C4)C3)ccc2c1 [Compound 2], the IC50 [1] was 200 nM, the IC50 ([2]; first test) was 676 nM and the IC50 ([2]; repeated (2nd) test) was 692 nM. The IC50 ([2]; repeated (3rd) test) was 589 nM.

CCc1nc2ccc(Cl)cn2c1C(=O)NCc1ccc2nc(N3CCC(c4ccc(OC(F)(F)F)cc4)CC3)ccc2c1 [Compound 3] showed an IC50 [1] of 50.1 nM.

In the case of CCc1nc2ccc(Cl)cn2c1C(=O)NCc1ccc2nc(N3CC4CC(F)CC4C3)ccc2c1 (centres unmarked) [Compound 4], the IC50 [1] is reported as 31.6 nM.

Compound Cc1nc2sccn2c1C(=O)NCc1ccc2nc(N3CCC(c4ccc(OC(F)(F)F)cc4)CC3)ccc2c1 [Compound 7] has an IC50 [1] of 200 nM.

CCc1nc2n(c1C(=O)NCc1ccc3nc(N4CCC(c5ccc(OC(F)(F)F)cc5)CC4)ccc3c1)CCN(C)C2 [Compound 8] gave an IC50 [1] of 158 nM.

Compound Cc1nc2sccn2c1C(=O)NCc1ccc2nc(N3CCN(c4ccc(OC(F)(F)F)cc4)CC3)ccc2c1 [Compound 9] has an IC50 [1] of 141 nM.

Work on CCc1nc2n(c1C(=O)NCc1ccc3nc(N4CCN(c5ccc(OC(F)(F)F)cc5)CC4)ccc3c1)CCCC2 [Compound 10] yielded an IC50 [1] of 126 nM.

In the case of Cc1nc2sccn2c1C(=O)NCc1ccc2nc(N(C)CCc3ccc(OC(F)(F)F)cc3)ccc2c1 [Compound 11], the IC50 [1] is reported as 355 nM.

Work on CCc1c(C(=O)NCc2ccc3nc(N4CC5(CC(c6ccccc6)C5)C4)ccc3c2)c2cc(Cl)cnc2n1C [Compound 12] yielded an IC50 [1] greater than 12600 nM.

Work on CCc1c(C(=O)NCc2ccc3nc(N4CC(c5ccccc5)C4)ccc3c2)c2cc(Cl)cnc2n1C [Compound 13] yielded an IC50 [1] greater than 12600 nM.

Compound CCc1nc2ccc(Cl)cn2c1C(=O)NCc1ccc2nc(N(C)Cc3ccc(OC(F)(F)F)cc3)cnc2c1 [Compound 15] has an IC50 [1] of 631 nM.

For CCc1nc2ccc(Cl)cn2c1C(=O)NCc1ccc2nc(N(C)Cc3ccc(OC(F)(F)F)cc3)ccc2c1 [Compound 17], the IC50 [1] was 79.4 nM.

Compound CCc1nc2ccc(Cl)cn2c1C(=O)NCc1ccc2cc(N(C)Cc3ccc(OC(F)(F)F)cc3)cnc2c1 [Compound 18] has an IC50 [1] of 1000 nM.

With Cc1nc2sccn2c1C(=O)NCc1ccc2nc(N(C)Cc3ccc(OC(F)(F)F)cc3)ccc2c1 [Compound 19] the IC50 [1] was 282 nM.

With CCc1nc2ccc(Cl)cn2c1C(=O)NCc1ccc2ncc(N(C)Cc3ccc(OC(F)(F)F)cc3)cc2c1 [Compound 20] the IC50 [1] was 794 nM.

CCc1c(C(=O)NCc2ccc3nc(N4CCC(c5ccc(OC(F)(F)F)cc5)CC4)ccc3c2)c2cc(Cl)ccc2n1C [Compound 21] gave an IC50 [1] greater than 12600 nM.

Work on CCc1c(C(=O)NCc2ccc3nc(N4CCC(c5ccc(OC(F)(F)F)cc5)CC4)ccc3c2)c2cc(Cl)cnc2n1C [Compound 22] yielded an IC50 [1] greater than 12600 nM.

Compound O=C(NCc1ccc2nc(N3CCC(c4ccc(OC(F)(F)F)cc4)CC3)ccc2c1)c1cc2c([nH]1)CCCC2 [Compound 23] has an IC50 [1] greater than 12600 nM.

Work on CCc1nc2ccc(Cl)cn2c1C(=O)NCc1ccc2nc(N3CCC(F)(F)CC3)ccc2c1 [Compound 24] yielded an IC50 [1] of 6.31 nM.

CCc1nc2ccc(Cl)cn2c1C(=O)NCc1ccc2nc(N3CC4(CC(F)C4)C3)ccc2c1 [Compound 25] gave an IC50 [1] of 178 nM.

For Cc1nn2ccccc2c1C(=O)NCc1ccc2nc(N3CCC(c4ccc(OC(F)(F)F)cc4)CC3)ccc2c1 [Compound 26], the IC50 [1] was 398 nM.

Compound Cc1nn2ccccc2c1C(=O)NCc1ccc2nc(N3CCN(c4ccc(OC(F)(F)F)cc4)CC3)ccc2c1 [Compound 27] has an IC50 [1] of 794 nM.

In the case of CCc1nc2ccc(Cl)cn2c1C(=O)NCc1ccc(N2CCC(c3ccc(OC(F)(F)F)cc3)CC2)cc1 [Compound Q203], the MIC50 (M. tuberculosis H37Rv) is given as 0.28 nM (≈ 0.156 ng/mL), the “activity against replicating and non-replicating bacteria” value [3] is given as “highly active” and the “activity against MDR tuberculosis” value (MDR tuberculosis) is given as “activity against MDR tuberculosis”.
